Results on 1 compound are retold here after patent US20090326008A1, “NF-kappa B Inhibitor” (priority 2006, published 2009).

The assay concerns COX-2 gene expression. Put plainly: Effects of test compounds on COX-2 gene expression in gastric cancer cell line MKN-45 (real-time PCR). In kind it is cell-based, human. To be noted: MKN-45 cells, test compound 1 μM, 16 hours, vs DMSO control = 100%, mean of triplicate. On the procedure: The human gastric cancer cell line MKN-45 obtained from JCRB (Japanese Collection of Research Bioresources) was cultured in Iscove's Modified Dulbecco's Medium (product of GIBCO) containing 10% fetal calf serum for 24 hours using a 6-well plate and a 5% CO2 incubator (37° C., 5% CO2). Test compound solutions prepared by diluting each test compound with DMSO (solvent) to a final concentration of 1 μM, and the same amount of DMSO as a control solution (containing no test compound) were added to the wells of the 6-well plate, and the cells were cultured in a CO2 incubator (37° C., 5% CO2) for 16 hours.
The cells were recovered, and Total RNA was prepared from the cells using Trizole reagent (product of Invitrogen) according to the standard method. Real-time PCR was performed using TaqManO Gene Expression Assays for human COX-2 (product of Applied Biosystems), and the amount of COX-2 mRNA in each test-compound-treated cell were determined. […]
PCR was performed according to the manufacturer's instructions for TaqMan® Gene Expression Assays (product of Applied Biosystems). […] The amount of each mRNA was determined from the calibration curve using the ABI PRISM 7000 Sequence Detection System. […]
Background: Quantitative PCR measures a nucleic acid by following its amplification.

For `COc1ccc(CC2SC(=S)NC2=O)c2c1N(CCC(C)C)C(=O)CC2` (stereo not shown) [Test Compound 965], the “COX-2 gene expression inhibition (%)” value is listed as greater than 20%.
